The assay is described as follows: Inhibition of Tel-fused RON kinase-mediated mouse BaF3 cell proliferation.

As usually defined, the IC50 is the concentration that gives 50% inhibition. Higher therefore signals lower potency. On to `COc1cc(N2CCC(N3CCN(C)CC3)CC2)ccc1Nc1ncc(Cl)c(Nc2ccccc2S(=O)(=O)C(C)C)n1` [TAE684], for which half-maximal inhibition (IC50) was put at 1.63 µM. This counts as single-digit micromolar.

Source of the values: BindingDB's records for doi:10.1073/pnas.0609412103 (Genomics Institute of The Novartis Research Foundation, 2007).
